Patent US20090209528A1, “SUBSTITUTED TETRAHYDROISOQUINOLINE COMPOUND, THEIR PREPARATION AND USE IN MEDICAMENTS” (LABORATORIOS DEL DR. ESTEVE S.A., priority 2006, published 2009)
Structures can show the parent of a compound that is named as a salt.

Target: T1, 5HT6-human recombinant receptor (Homo sapiens, UniProt P50406)
T1 construct: purchased Receptor Biology; host or cells: HEK-293 cell membranes
Assay: Binding to serotonin receptor 5-HT6 ([3H]-LSD displacement)
Settings: radioligand [3H]-LSD 2.7 nM; for inhibition at 0.01 µM / inhibition at 0.1 µM: 1 h; for inhibition at 0.01 µM: compound at 10 nM; for inhibition at 0.1 µM: compound at 100 nM; for Ki: membranes of HEK-293 cells expressing the receptor, 60 min, 37° C.
Protocol: Cell membranes of HEK-293 cells expressing the 5HT6-human recombinant receptor were supplied by Receptor Biology. In said membranes the receptor concentration is 2.18 pmol/mg protein and the protein concentration is 9.17 mg/ml. The experimental protocol follows the method of B. L. Roth et al. [B. L. Roth, S. C. Craigo, M. S. Choudhary, A. Uluer, F. J. Monsma, Y. Shen, H. Y. Meltzer, D. R. Sibley: Binding of Typical and Atypical Antipsychotic Agents to 5-Hydroxytryptamine-6 and Hydroxytryptamine-7 Receptors. The Journal of Pharmacology and Experimental Therapeutics, 1994, 268, 1403] with the following slight changes. The respective part of the literature description is hereby incorporated by reference and forms part of the disclosure.
The commercial membrane is diluted (1:40 dilution) with the binding buffer: 50 mM Tris-HCl, 10 mM MgCl2, 0.5 mM EDTA (pH 7.4). The radioligand used is [^3H]-LSD at a concentration of 2.7 nM with a final volume of 200 μl. Incubation is initiated by adding 100 μl of membrane suspension, (≈22.9 μg membrane protein), and is prolonged for 60 minutes at a temperature of 37° C. The incubation is ended by fast filtration in a Brandel Cell Harvester through fiber glass filters made by Schleicher & Schuell GF 3362 pretreated with a solution of polyethylenimine at 0.5%. The filters are washed three times with three milliliters of buffer Tris-HCl 50 mM pH 7.4. The filters are transferred to flasks and 5 ml of Ecoscint H liquid scintillation cocktail are added to each flask. The flasks are allowed to reach equilibrium for several hours before counting with a Wallac Winspectral 1414 scintillation counter. Non-specific binding is determined in the presence of 100 μM of serotonin. Tests were made in triplicate. The inhibition constants (Ki, nM) were calculated by non-linear regression analysis using the program EBDA/LIGAND described in Munson and Rodbard, Analytical Biochemistry, 1980, 107, 220, the respective part of which is hereby incorporated by reference and forms part of the disclosure.

T1 sequence (P50406 whole entry): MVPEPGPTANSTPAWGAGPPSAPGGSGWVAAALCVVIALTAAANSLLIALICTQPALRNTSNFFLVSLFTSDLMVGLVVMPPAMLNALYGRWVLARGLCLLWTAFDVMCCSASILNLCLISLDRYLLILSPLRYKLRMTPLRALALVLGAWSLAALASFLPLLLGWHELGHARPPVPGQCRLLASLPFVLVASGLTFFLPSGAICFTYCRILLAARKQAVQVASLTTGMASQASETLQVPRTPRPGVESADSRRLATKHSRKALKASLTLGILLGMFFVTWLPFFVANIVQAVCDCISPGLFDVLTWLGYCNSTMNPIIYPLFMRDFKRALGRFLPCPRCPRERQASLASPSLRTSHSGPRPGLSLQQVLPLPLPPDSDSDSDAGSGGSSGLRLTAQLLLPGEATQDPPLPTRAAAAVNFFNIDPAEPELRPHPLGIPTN

Structure (SMILES)	inhibition at 0.01 µM	inhibition at 0.1 µM	Ki
O=S(=O)(Nc1ccc2c(c1)CCNC2)c1cccc2ccccc12 [Example 1, Naphthalene-1-sulfonic acid (1,2,3,4-tetrahydroisoquinolin-6-yl)-amide hydrochloride]	53.3%	74.8%	13.8 nM
CN(c1ccc2c(c1)CC[N+](C)(C)C2)S(=O)(=O)c1cccc2ccccc12 [Example 2, 2,2-Dimethyl-6-[methyl-(naphthalene-1-sulfonyl)-amino]-1,2,3,4-tetrahydro isoquinolinium iodide]	17%	19.6%	
CN1CCc2cc(NS(=O)(=O)c3cccc4ccccc34)ccc2C1 [Example 3, Naphthalene-1-sulfonic acid (2-methyl-1,2,3,4-tetrahydro-isoquinolin-6-yl)-amide hydrochloride]	3.9%	18.2%	
Cc1c(S(=O)(=O)Nc2ccc3c(c2)CCNC3)sc2ccc(Cl)cc12 [Example 4, 5-Chloro-3-methyl-benzo[b]thiophene-2-sulfonic acid (1,2,3,4-tetrahydro-isoqui-nolin-6-yl)-amide hydrochloride]	27.3%	71.1%	
Cc1c(S(=O)(=O)Nc2ccc3c(c2)CCN(C)C3)sc2ccc(Cl)cc12 [Example 5, 5-Chloro-3-methyl-benzo[b]thiophene-2-sulfonic acid (2-methyl-1,2,3,4-tetrahydro-isoquinolin-6-yl)-amide hydrochloride]	25.9%	76.3%	79.8 nM
Cc1ccc(S(=O)(=O)Nc2ccc3c(c2)CCNC3)c2ccccc12 [Example 6, 4-Methyl-naphthalene-1-sulfonic acid (1,2,3,4-tetrahydro-isoquinolin-6-yl)amide hydrochloride]	60.1%	88.8%	14.5 ± 3.8 nM
Cc1ccc(S(=O)(=O)Nc2ccc3c(c2)CCN(C)C3)c2ccccc12 [Example 7, 4-Methyl-naphthalene-1-sulfonic acid (2-methyl-1,2,3,4-tetrahydro-isoqui-nolin-6-yl)amide hydrochloride]	80.3%	92.2%	13.3 nM
O=S(=O)(Nc1ccc2c(c1)CCNC2)c1ccc2ccccc2c1 [Example 8, Naphthalene-2-sulfonic acid (1,2,3,4-tetrahydro-isoquinolin-6-yl)-amide hydrochloride]	37.4%	74.6%	
CN1CCc2cc(NS(=O)(=O)c3ccc4ccccc4c3)ccc2C1 [Example 9, Naphthalene-2-sulfonic acid (2-methyl-1,2,3,4-tetrahydro-isoquinolin-6-yl)-amide hydrochloride]	60.1%	86.5%	9.2 ± 1.2 nM
O=S(=O)(Nc1ccc2c(c1)CCNC2)c1c(Cl)nc2sccn12 [Example 10, 6-Chloro-imidazo[2,1-b] thiazole-5-sulfonic acid (1,2,3,4,- tetrahydro-isoquinolin-6-yl)-amide hydrochloride]	85.8%	94.6%	1.3 ± 0.12 nM
CC(C)(C)OC(=O)N1CCc2cc(NS(=O)(=O)c3cccc4ccccc34)ccc2C1 [Example 13, 6-(Naphthalene-1-sulfonylamino)-3,4-dihydro-1H-isoquinoline-2-carboxylic acid tert-butyl ester]	30.7%	28.8%	1.3 nM
Cc1c(S(=O)(=O)Nc2ccc3c(c2)CCN(C(=O)OC(C)(C)C)C3)sc2ccc(Cl)cc12 [Example 14, 6-(5-Chloro-3-methyl-benzo[b]thiophene-2-sulfonylamino)-3,4-dihydro-1H-isoquinoline-2-carboxylic acid tert-butyl ester]	-7.3%	-3%	
Cc1ccc(S(=O)(=O)Nc2ccc3c(c2)CCN(C(=O)OC(C)(C)C)C3)c2ccccc12 [Example 15, 6-(4-Methyl-naphthalene-1-sulfonylamino)-3,4-dihydro-1H-isoquinoline-2-carboxylic acid tert-butyl ester]	-5%	8.2%	
CC(C)(C)OC(=O)N1CCc2cc(NS(=O)(=O)c3ccc4ccccc4c3)ccc2C1 [Example 16, 6-(Naphthalene-2-sulfonylamino)-3,4-dihydro-1H-isoquinoline-2-carboxylic acid tert-butyl ester]	5.6%	10.6%	
COc1ccc(C)cc1S(=O)(=O)Nc1ccc2c(c1)CCN(C(=O)OC(C)(C)C)C2 [Example 17, 6-(2-Methoxy-5-methyl-benzenesulfonylamino)-3,4-dihydro-1H-isoquinoline-2-carboxylic acid tert-butyl ester]	-1.3%	-2%	
CC(C)(C)OC(=O)N1CCc2cc(NS(=O)(=O)c3cccnc3)ccc2C1 [Example 18, 6-(Pyridine-3-sulfonylamino)-3,4-dihydro-1H-isoquinoline-2-carboxylic acid tert-butyl ester]	-0.8%	6.8%	
CN1CCc2cc(NS(=O)(=O)c3c(Cl)nc4sccn34)ccc2C1 [Example 19, 6-Chloro-imidazo[2,1-b]thiazole-5-sulfonic acid (2-methyl-1,2,3,4tetrahydro-isoquinolin-6-yl)-amide hydrochloride]	74.2%	90%	2.3 ± 0.2 nM
O=S(=O)(Nc1ccc2c(c1)CCNC2)c1ccccc1-c1ccccc1 [Example 22, Biphenyl-2-sulfonic acid (1,2,3,4-tetrahydro-isoquinolin-6-yl)-amide hydrochloride]	79.7%	90.8%	12.3 ± 6 nM
O=S(=O)(Nc1ccc2c(c1)CCNC2)c1cc2ccccc2s1 [Example 24, Benzo[b]thiophene-2-sulfonic acid (1,2,3,4-tetrahydro-isoquinolin-6-yl)-amide hydrochloride]	53.6%	86.8%	12.6 ± 1.1 nM
O=S(=O)(Nc1ccc2c(c1)CCNC2)c1csc2ccccc12 [Example 29, Benzo[b]thiophene-3-sulfonic acid (1,2,3,4-tetrahydro-isoquinolin-6-yl)-amide hydrochloride]	88%	89.6%	5.3 ± 0.4 nM
O=S(=O)(Nc1ccc2c(c1)CCNC2)c1ccc(F)c2ccccc12 [Example 30, 4-Fluoro-naphthalene-1-sulfonic acid (1,2,3,4-tetrahydro-isoquinolin-6-yl)-amide hydrochloride]	63.2%	85.2%	7.8 ± 0.1 nM
O=S(=O)(Nc1ccc2c(c1)CCNC2)c1ccc(Cl)c2ccccc12 [Example 31, 4-Chloro-naphthalene-1-sulfonic acid (1,2,3,4-tetrahydro-isoquinolin-6-yl)-amide hydrochloride]	72.3%	85.5%	5.7 nM
CCc1ccc(OC)c(S(=O)(=O)Nc2ccc3c(c2)CCNC3)c1 [Example 35, 5-Ethyl-2-methoxy-N-(1,2,3,4-tetrahydro-isoquinolin-6-yl)-benzene sulfonamide hydrochloride]	48.8%	81.6%	14.2 ± 1.5 nM
O=S(=O)(Nc1ccc2c(c1)CCNC2)c1cccc2c(Cl)cccc12 [Example 42, 5-Chloro-naphthalene-1-sulfonic acid (1,2,3,4-tetrahydro-isoquinolin-6-yl)-amide hydrochloride]	78.2%	88.9%	9.3 ± 2.2 nM
CN1CCc2ccc(NS(=O)(=O)c3c(Cl)nc4sccn34)cc2C1 [Example 53, 6-Chloro-imidazo[2,1-b]thiazole-5-sulfonic acid (2-methyl-1,2,3,4-tetrahydro-isoquinolin-7-yl)-amide hydrochloride]	55.4%	82.8%	3.8 ± 1 nM
O=S(=O)(Nc1ccc2c(c1)CNCC2)c1c(Cl)nc2sccn12 [Example 54, 6-Chloro-imidazo[2,1-b]thiazole-5-sulfonic acid (1,2,3,4-tetrahydro-iso-quinolin-7-yl)-amide hydrochloride]	81%	91.9%	10.7 ± 4.8 nM
Cc1ccc(S(=O)(=O)Nc2ccc3c(c2)CNCC3)c2ccccc12 [Example 55, 4-Methyl-naphthalene-1-sulfonic acid (1,2,3,4-tetrahydro-isoquinolin-7-yl)-amide hydrochloride]	82.3%	84.9%	3.8 ± 1.2 nM
